Measured values taken from ChEMBL document CHEMBL1147640, “Antitumor agents. Part 232: Synthesis of cyclosulfite podophyllotoxin analogues as novel prototype antitumor agents” (2004).

Key:
Details in all cases: Homo sapiens, read-out: ED50 (the source's name)
1A9 = assay: Effective dose of compound against replication of 1A9 cell line was evaluated; format: functional
A549 = assay: Effective dose of compound against replication of A549 cell line was evaluated; format: functional
HCT-8 = assay: Effective dose of compound against replication of HCT-8 cell line was evaluated; format: functional
HOS = assay: Effective dose of compound against replication of HOS cell line was evaluated; format: functional
KB [1] = assay: Effective dose of compound against replication of KB cell line was evaluated; format: functional
KB [2] = assay: Effective dose of compound against replication of KB-Vin cell line was evaluated; format: functional
KB [3] = assay: Effective dose of compound against replication of KB/7d cell line was evaluated; format: functional
MCF7 = assay: Effective dose of compound against replication of MCF-7 cell line was evaluated; format: functional
PC-3 = assay: Effective dose of compound against replication of PC-3 cell line was evaluated; format: functional
SK-MEL-2 = assay: Effective dose of compound against replication of SK-MEL-2 cell line was evaluated; format: functional
U-87 MG = assay: Effective dose of compound against replication of U87MG cell line was evaluated; format: functional, U-87MG ATCC

| SMILES | EC50 (1A9) [µM] | EC50 (A549) [µM] | EC50 (HCT-8) [µM] | EC50 (HOS) [µM] | EC50 (KB [1]) [µM] | EC50 (KB [2]) [µM] | EC50 (KB [3]) [µM] | EC50 (MCF7) [µM] | EC50 (PC-3) [µM] | EC50 (SK-MEL-2) [µM] | EC50 (U-87 MG) [µM] |
| --- | --- | --- | --- | --- | --- | --- | --- | --- | --- | --- | --- |
| COc1cc([C@@H]2c3cc4c(cc3[C@@H](Nc3ccc([N+](=O)[O-])cc3)[C@H]3COC(=O)[C@H]23)OCO4)cc(OC)c1O | < 1.6 | < 0.1 | 1.6 | < 1.6 | 3.5 | 4.1 | 1.5 | 24.5 | 8.9 | 3 | 5.5 |
| COc1cc([C@@H]2c3cc4c(cc3[C@@H](Nc3ccc([N+](=O)[O-])cc3)[C@H]3COS(=O)OC[C@H]23)OCO4)cc(OC)c1O (some centres not stated) | 4.2 | 8 | 10 | 6 | 5.1 | 7.1 | 2.9 | 2.5 | > 20 | 7.9 | 8 |
